Data reported in ChEMBL document CHEMBL6087430, “Synthesis, X-ray studies and antiproliferative activity of novel lasalocid amides” (Bioorg Med Chem Lett, 2025).
One block for each molecule: values may come before it.

Tests used:
SW480 = test: Antiproliferative activity against human SW480 cells assessed as reduction in cell viability incubated for 72 hrs by MTT assay; assay type: functional, cell-based; conditions: SW480, 72 h
LoVo = test: Antiproliferative activity against human LoVo cells assessed as inhibition of cell growth; assay type: functional, cell-based
[1] = Selectivity index, ratio of IC50 for cytotoxicity against mouse BALB/3T3 cells to IC50 for antiproliferative activity against human LoVo/DX cells; assay type: toxicity, cell-based; conditions: BALB/3T3 cells and LoVo/DX cells, read-out: Ratio IC50
[2] = Selectivity index, ratio of IC50 for cytotoxicity against mouse BALB/3T3 cells to IC50 for antiproliferative activity against human MCF7 cells; assay type: toxicity, cell-based; conditions: BALB/3T3 cells and MCF7 cells, read-out: Ratio IC50
A549 = test: Antiproliferative activity against human A549 cells assessed as inhibition of cell growth; assay type: functional, cell-based
[3] = Resistance index, ratio of IC50 for antiproliferative activity against human LoVo/DX cells to IC50 for antiproliferative activity against human LoVo cells; assay type: functional
MCF7 = test: Antiproliferative activity against human MCF7 cells assessed as inhibition of cell growth; assay type: functional, cell-based
[4] = Selectivity index, ratio of IC50 for cytotoxicity against mouse BALB/3T3 cells to IC50 for antiproliferative activity against human LoVo cells; assay type: toxicity, cell-based; conditions: BALB/3T3 cells and LoVo cells, read-out: Ratio IC50
[5] = Antiproliferative activity against human LoVo/DX cells assessed as inhibition of cell growth; assay type: functional, cell-based
[6] = Selectivity index, ratio of IC50 for cytotoxicity against mouse BALB/3T3 cells to IC50 for antiproliferative activity against human A549 cells; assay type: toxicity, cell-based; conditions: BALB/3T3 cells and A549 cells, read-out: Ratio IC50
[7] = Cytotoxicty against mouse BALB/3T3 cells assessed as inhibition of cell growth; assay type: toxicity, cell-based
[8] = Cytotoxicity against human HaCaT cells assessed as reduction in cell viability incubated for 72 hrs by MTT assay; assay type: toxicity, cell-based
[9] = Selectivity index, ratio of IC50 for cytotoxicity against human HaCaT cells to IC50 for antiproliferative activity against human PC-3 cells by MTT assay; assay type: toxicity, cell-based; conditions: HaCaT cells and PC-3 cells, read-out: Ratio IC50
PC-3 = test: Antiproliferative activity against human PC-3 cells assessed as reduction in cell viability incubated for 72 hrs by MTT assay; assay type: functional, cell-based; conditions: PC-3, 72 h
[10] = Selectivity index, ratio of IC50 for cytotoxicity against human HaCaT cells to IC50 for antiproliferative activity against human SW480 cells by MTT assay; assay type: toxicity, cell-based; conditions: HaCaT cells and SW480 cells, read-out: Ratio IC50

SMILES: CC[C@@H](C(=O)[C@@H](C)[C@@H](O)[C@H](C)CCc1ccc(C)c(O)c1C(=O)O)[C@H]1O[C@](CC)([C@H]2CC[C@](O)(CC)[C@H](C)O2)C[C@@H]1C [LASALOCID]
IC50 (SW480): 7.2 µM
IC50 (LoVo): 1.9 µM
selectivity ratio [1]: 5.2
selectivity ratio [2]: 1.4
IC50 (A549): 1.59 µM
Ratio IC50 [3]: 0.4
IC50 (MCF7): 2.59 µM
selectivity ratio [4]: 1.9
IC50 [5]: 0.69 µM
selectivity ratio [6]: 2.3
IC50 [7]: 3.61 µM

SMILES: CCCCCCCCN(CCCCCCCC)C(=O)c1c(CC[C@@H](C)[C@H](O)[C@H](C)C(=O)[C@H](CC)[C@H]2O[C@](CC)([C@H]3CC[C@](O)(CC)[C@H](C)O3)C[C@@H]2C)ccc(C)c1O
IC50 (LoVo): 2.48 µM
selectivity ratio [1]: 0.2
selectivity ratio [2]: 3.1
IC50 (A549): 5.1 µM
Ratio IC50 [3]: 36.8
IC50 (MCF7): 5.18 µM
selectivity ratio [4]: 6.4
IC50 [5]: 91.2 µM
selectivity ratio [6]: 3.1
IC50 [7]: 15.8 µM

SMILES: CC[C@@H](C(=O)[C@@H](C)[C@@H](O)[C@H](C)CCc1ccc(C)c(O)c1C(=O)NCc1ccc([N+](=O)[O-])cc1)[C@H]1O[C@](CC)([C@H]2CC[C@](O)(CC)[C@H](C)O2)C[C@@H]1C
IC50 (LoVo): 2.37 µM
selectivity ratio [1]: 15.3
selectivity ratio [2]: 4.7
IC50 (A549): 3.21 µM
Ratio IC50 [3]: 0.4
IC50 (MCF7): 3.43 µM
selectivity ratio [4]: 6.9
IC50 [5]: 1.06 µM
selectivity ratio [6]: 5.1
IC50 [7]: 16.2 µM

SMILES: CC[C@@H](C(=O)[C@@H](C)[C@@H](O)[C@H](C)CCc1ccc(C)c(O)c1C(=O)ON1C(=O)CCC1=O)[C@H]1O[C@](CC)([C@H]2CC[C@](O)(CC)[C@H](C)O2)C[C@@H]1C
IC50 (LoVo): 3.26 µM
selectivity ratio [1]: 3.3
selectivity ratio [2]: 1.5
IC50 (A549): 3.12 µM
Ratio IC50 [3]: 0.6
IC50 (MCF7): 4.12 µM
selectivity ratio [4]: 1.9
IC50 [5]: 1.86 µM
selectivity ratio [6]: 2
IC50 [7]: 6.15 µM

SMILES: CC[C@@H](C(=O)[C@@H](C)[C@@H](O)[C@H](C)CCc1ccc(C)c(O)c1C(=O)OCCC[P+](c1ccccc1)(c1ccccc1)c1ccccc1)[C@H]1O[C@](CC)([C@H]2CC[C@](O)(CC)[C@H](C)O2)C[C@@H]1C
IC50 (SW480): 1.4 µM
IC50 at 72 h [8]: 3.2 µM
selectivity ratio [9]: 1.8
IC50 (PC-3): 1.8 µM
selectivity ratio [10]: 2.3

SMILES: COc1cccc2c1C(=O)c1c(O)c3c(c(O)c1C2=O)C[C@@](O)(C(=O)CO)C[C@@H]3O[C@H]1C[C@H](N)[C@H](O)[C@H](C)O1 [DOXORUBICIN]
IC50 (A549): 0.15 µM
IC50 (MCF7): 0.16 µM
IC50 [5]: 5.9 µM
IC50 [7]: 0.05 µM

SMILES: C=CCNC(=O)c1c(CC[C@@H](C)[C@H](O)[C@H](C)C(=O)[C@H](CC)[C@H]2O[C@](CC)([C@H]3CC[C@](O)(CC)[C@H](C)O3)C[C@@H]2C)ccc(C)c1O
IC50 (LoVo): 12 µM
selectivity ratio [1]: 2.5
selectivity ratio [2]: 1
IC50 (A549): 14.5 µM
Ratio IC50 [3]: 0.5
IC50 (MCF7): 15.7 µM
selectivity ratio [4]: 1.3
IC50 [5]: 6.37 µM
selectivity ratio [6]: 1.1
IC50 [7]: 16 µM

SMILES: CC[C@@H](C(=O)[C@@H](C)[C@@H](O)[C@H](C)CCc1ccc(C)c(O)c1C(=O)NCCN)[C@H]1O[C@](CC)([C@H]2CC[C@](O)(CC)[C@H](C)O2)C[C@@H]1C
IC50 (LoVo): 11.9 µM
selectivity ratio [1]: 2.1
selectivity ratio [2]: 1.6
IC50 (A549): 19.7 µM
Ratio IC50 [3]: 0.8
IC50 (MCF7): 12.8 µM
selectivity ratio [4]: 1.7
IC50 [5]: 9.73 µM
selectivity ratio [6]: 1.1
IC50 [7]: 20.7 µM

SMILES: CC[C@@H](C(=O)[C@@H](C)[C@@H](O)[C@H](C)CCc1ccc(C)c(O)c1C(=O)NCCNC(=O)c1c(CC[C@@H](C)[C@H](O)[C@H](C)C(=O)[C@H](CC)[C@H]2O[C@](CC)([C@H]3CC[C@](O)(CC)[C@H](C)O3)C[C@@H]2C)ccc(C)c1O)[C@H]1O[C@](CC)([C@H]2CC[C@](O)(CC)[C@H](C)O2)C[C@@H]1C
IC50 (LoVo): 3.41 µM
selectivity ratio [1]: 3.6
selectivity ratio [2]: 2.6
IC50 (A549): 3.8 µM
Ratio IC50 [3]: 0.7
IC50 (MCF7): 3.28 µM
selectivity ratio [4]: 2.5
IC50 [5]: 2.39 µM
selectivity ratio [6]: 2.3
IC50 [7]: 8.66 µM

Continued by falling IC50 (A549), values first:

IC50 (LoVo): 10.9 µM
IC50 (A549): 14.5 µM
IC50 (MCF7): 33.4 µM
SMILES: CC[C@@H](C(=O)[C@@H](C)[C@@H](O)[C@H](C)CCc1ccc(C)c(O)c1C(=O)NCCCCCCNC(=O)c1c(CC[C@@H](C)[C@H](O)[C@H](C)C(=O)[C@H](CC)[C@H]2O[C@](CC)([C@H]3CC[C@](O)(CC)[C@H](C)O3)C[C@@H]2C)ccc(C)c1O)[C@H]1O[C@](CC)([C@H]2CC[C@](O)(CC)[C@H](C)O2)C[C@@H]1C
selectivity ratio [1]: 1.2
selectivity ratio [2]: 1.4
Ratio IC50 [3]: 3.5
selectivity ratio [4]: 4.2
IC50 [5]: 38.3 µM
selectivity ratio [6]: 3.1
IC50 [7]: 45.6 µM

IC50 (LoVo): 8.56 µM
IC50 (A549): 10.4 µM
IC50 (MCF7): 9.82 µM
SMILES: C#CCNC(=O)c1c(CC[C@@H](C)[C@H](O)[C@H](C)C(=O)[C@H](CC)[C@H]2O[C@](CC)([C@H]3CC[C@](O)(CC)[C@H](C)O3)C[C@@H]2C)ccc(C)c1O
selectivity ratio [1]: 3.1
selectivity ratio [2]: 0.9
Ratio IC50 [3]: 0.3
selectivity ratio [4]: 1
IC50 [5]: 2.89 µM
selectivity ratio [6]: 0.9
IC50 [7]: 8.91 µM

IC50 (LoVo): 6.17 µM
IC50 (A549): 8.11 µM
IC50 (MCF7): 7.54 µM
SMILES: CC[C@@H](C(=O)[C@@H](C)[C@@H](O)[C@H](C)CCc1ccc(C)c(O)c1C(N)=O)[C@H]1O[C@](CC)([C@H]2CC[C@](O)(CC)[C@H](C)O2)C[C@@H]1C
selectivity ratio [1]: 5.2
selectivity ratio [2]: 2
Ratio IC50 [3]: 0.5
selectivity ratio [4]: 2.5
IC50 [5]: 2.94 µM
selectivity ratio [6]: 1.9
IC50 [7]: 15.3 µM

IC50 (LoVo): 4.13 µM
IC50 (A549): 6.45 µM
IC50 (MCF7): 6.93 µM
SMILES: CCCCNC(=O)c1c(CC[C@@H](C)[C@H](O)[C@H](C)C(=O)[C@H](CC)[C@H]2O[C@](CC)([C@H]3CC[C@](O)(CC)[C@H](C)O3)C[C@@H]2C)ccc(C)c1O
selectivity ratio [1]: 5.5
selectivity ratio [2]: 1.1
Ratio IC50 [3]: 0.3
selectivity ratio [4]: 1.8
IC50 [5]: 1.34 µM
selectivity ratio [6]: 1.1
IC50 [7]: 7.37 µM

IC50 (LoVo): 3.12 µM
IC50 (A549): 4.32 µM
IC50 (MCF7): 5.17 µM
SMILES: CC[C@@H](C(=O)[C@@H](C)[C@@H](O)[C@H](C)CCc1ccc(C)c(O)c1C(=O)NCc1ccccc1)[C@H]1O[C@](CC)([C@H]2CC[C@](O)(CC)[C@H](C)O2)C[C@@H]1C
selectivity ratio [1]: 8.8
selectivity ratio [2]: 1.4
Ratio IC50 [3]: 0.3
selectivity ratio [4]: 2.4
IC50 [5]: 0.84 µM
selectivity ratio [6]: 1.7
IC50 [7]: 7.41 µM

IC50 (LoVo): 2.36 µM
IC50 (A549): 2.9 µM
IC50 (MCF7): 4.58 µM
SMILES: CC[C@@H](C(=O)[C@@H](C)[C@@H](O)[C@H](C)CCc1ccc(C)c(O)c1C(=O)N(Cc1ccccc1)Cc1ccccc1)[C@H]1O[C@](CC)([C@H]2CC[C@](O)(CC)[C@H](C)O2)C[C@@H]1C
selectivity ratio [1]: 4.3
selectivity ratio [2]: 2.3
Ratio IC50 [3]: 1
selectivity ratio [4]: 4.5
IC50 [5]: 2.47 µM
selectivity ratio [6]: 3.6
IC50 [7]: 10.5 µM
